Data reported in patent publication US20260028354A1, “TETRAHYDRONAPHTHALENE DERIVATIVES AS ESTROGEN RECEPTOR DEGRADERS” (REGENT OF THE UNIVERSITY OF MICHIGAN, priority 2022, published 2026).
Like-named read-outs stand apart in the source and are kept apart here.

How the values were obtained:
ER = ER (Homo sapiens (Human), UniProt P03372); assay: In-cell western blot analysis of ER for "B" compounds; type: cell-based; settings: 16 hours, read-out: ICW DC50
In short: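 In-cell western: fixed cells stained with primary antibodies (2 h, RT), then anti-rabbit-680 and anti-mouse-800 secondaries (1:1000, 1 h, RT), imaged on a LI-COR plate reader. Relative ER level in treated wells expressed against untreated and DMSO-treated wells set as 100%.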

[1] = Cell growth assay (WST-8) for "B" compounds; type: cell-based; settings: read-out: Cell growth Inhibition in T47D cell line IC50
In short: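 Cells seeded at 1500/well overnight, then exposed to compounds for 4 days. 10% WST-8 added for 2.5 h at 37 °C and absorbance read at 450 nm. Growth given as absorbance relative to vehicle control, from three repeats.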

ER, sequence (P03372 whole entry): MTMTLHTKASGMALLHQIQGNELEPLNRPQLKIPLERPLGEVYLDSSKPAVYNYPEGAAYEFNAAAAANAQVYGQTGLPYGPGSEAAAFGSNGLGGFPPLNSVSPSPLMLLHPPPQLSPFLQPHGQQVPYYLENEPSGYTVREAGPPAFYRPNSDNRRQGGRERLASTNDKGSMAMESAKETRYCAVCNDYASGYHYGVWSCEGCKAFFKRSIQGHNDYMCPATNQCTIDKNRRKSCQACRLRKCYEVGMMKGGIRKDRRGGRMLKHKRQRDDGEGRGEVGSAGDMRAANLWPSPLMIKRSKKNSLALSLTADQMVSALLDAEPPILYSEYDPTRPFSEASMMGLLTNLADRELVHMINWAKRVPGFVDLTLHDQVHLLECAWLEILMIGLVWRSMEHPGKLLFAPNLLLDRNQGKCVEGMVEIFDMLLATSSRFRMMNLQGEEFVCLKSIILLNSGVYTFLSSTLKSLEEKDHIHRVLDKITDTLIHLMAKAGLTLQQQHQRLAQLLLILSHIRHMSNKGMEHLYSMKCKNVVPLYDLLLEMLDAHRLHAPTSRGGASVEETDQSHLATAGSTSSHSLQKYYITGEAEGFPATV

Structure (SMILES) | DC50 (ER) | IC50 ([1]; T47D) | IC50 ([1]; T47D, T47D cell line) | IC50 ([1]; T47D cell line)
O=C1CCC(N2Cc3c(ccc4c3OCC43CCN(CC4COC5(CN(c6ccc([C@@H]7c8ccc(O)cc8CC[C@@H]7c7ccccc7)cc6)C5)OC4)CC3)C2=O)C(=O)N1 (stereo partly drawn) [Compound B346, 3-(1′-((2-(4-((1R,2S)-6-hydroxy-2-phenyl-1,2,3,4-tetrahydronaphthalen-1-yl)phenyl)-5,9-dioxa-2-azaspiro[3.5]nonan-7-yl)methyl)-6-oxo-6,8-dihydro-2H,7H-spiro[furo[2,3-e]isoindole-3,4′-piperidin]-7-yl)piperidine-2,6-dione] | 10 to 100 nM | 1 to 10 nM |  | 
O=C1CCC(N2Cc3c(ccc4c3OCC43CCN(CC4COC5(CCN(c6ccc([C@@H]7c8ccc(O)cc8CC[C@@H]7c7ccccc7)cc6)CC5)O4)CC3)C2=O)C(=O)N1 (stereo partly drawn) [Compound B350, 3-(1′-((8-(4-((1R,2S)-6-hydroxy-2-phenyl-1,2,3,4-tetrahydronaphthalen-1-yl)phenyl)-1,4-dioxa-8-azaspiro[4.5]decan-2-yl)methyl)-6-oxo-6,8-dihydro-2H,7H-spiro[furo[2,3-e]isoindole-3,4′-piperidin]-7-yl)piperidine-2,6-dione] | 10 to 100 nM | > 10 nM |  | 
O=C1CCC(N2Cc3cc4c(cc3C2=O)CN(CC2COC3(CCN(c5ccc([C@@H]6c7ccc(O)cc7CC[C@@H]6c6ccccc6)cc5)CC3)C2)C4)C(=O)N1 (stereo partly drawn) [Compound B352, 3-(6-((8-(4-((1R,2S)-6-hydroxy-2-phenyl-1,2,3,4-tetrahydronaphthalcn-1-yl)phcnyl)-1-oxa-8-azaspiro[4.5]decan-3-yl)methyl)-1-oxo-3,5,6,7-tetrahydropyrrolo[3,4-f]isoindol-2(1H)-yl)piperidine-2,6-dione] | 10 to 100 nM |  |  | 1 to 10 nM
O=C1CCC(N2Cc3cc4c(cc3C2=O)CN(CC2COC3(CCN(c5ccc([C@@H]6c7ccc(O)cc7CC[C@@H]6c6ccccc6)cc5)CC3)OC2)C4)C(=O)N1 (stereo partly drawn) [Compound B355, 3-(6-((9-(4-((1R,2S)-6-hydroxy-2-phenyl-1,2,3,4-tetrahydronaphthalen-1-yl)phenyl)-1,5-dioxa-9-azaspiro[5.5]undecan-3-yl)methyl)-1-oxo-3,5,6,7-tetrahydropyrrolo[3,4-f]isoindol-2(1H)-yl)piperidine-2,6-dione] | 10 to 100 nM |  | < 1 nM | 
O=C1CC[C@H](N2Cc3c(ccc4c3OCC43CCN(CC4CCC5(C4)CN(c4ccc([C@@H]6c7ccc(O)cc7CC[C@@H]6c6ccccc6)cc4)C5)CC3)C2=O)C(=O)N1 (stereo partly drawn) [Compound B359, 3-(1′-((2-(4-((1R,2S)-6-hydroxy-2-phenyl-1,2,3,4-tetrahydronaphthalen-1-yl)phenyl)-2-azaspiro[3.4]octan-6-yl)methyl)-6-oxo-6,8-dihydro-2H,7H-spiro[furo[2,3-e]isoindole-3,4′-piperidin]-7-yl)piperidine-2,6-dione] | 10 to 100 nM | 1 to 10 nM |  | 
O=C1CCC(N2Cc3c(ccc4c3OCC43CCN(CC4CCC5(CCN(c6ccc([C@@H]7c8ccc(O)cc8CC[C@@H]7c7ccccc7)cc6)CC5)C4)CC3)C2=O)C(=O)N1 (stereo partly drawn) [Compound B364, 3-(1′-((8-(4-((1R,2S)-6-hydroxy-2-phenyl-1,2,3,4-tetrahydronaphthalen-1-yl)phenyl)-8-azaspiro[4.5]decan-2-yl)methyl)-6-oxo-6,8-dihydro-2H,7H-spiro[furo[2,3-e]isoindole-3,4′-piperidin]-7-yl)piperidine-2,6-dione] | > 100 nM | 1 to 10 nM |  | 
O=C1CC[C@H](N2Cc3c(ccc4c3OCC43CCN(CC4CCC5(CCN(c6ccc([C@@H]7c8ccc(O)cc8CC[C@@H]7c7ccccc7)cc6)CC5)OC4)CC3)C2=O)C(=O)N1 (stereo partly drawn) [Compound B366, (3S)-3-(1′-((9-(4-((1R,2S)-6-hydroxy-2-phenyl-1,2,3,4-tetrahydronaphthalen-1-yl)phenyl)-1-oxa-9-azaspiro[5.5]undecan-3-yl)methyl)-6-oxo-6,8-dihydro-2H,7H-spiro[furo[2,3-e]isoindole-3,4′-piperidin]-7-yl)piperidine-2,6-dione] | < 10 nM | < 1 nM |  | 
O=C1CCC(N2Cc3cc4c(cc3C2=O)OC[C@@H]2CN(CC(=O)N3CCC5(CC3)CCN(c3ccc([C@@H]6c7ccc8[nH]ncc8c7CC[C@@H]6c6ccccc6)cc3)CC5)CCN42)C(=O)N1 (stereo partly drawn) [Compound B389, 3-((S)-8-oxo-3-(2-oxo-2-(9-(4-((6R,7S)-7-phenyl-6,7,8,9-tetrahydro-3H-benzo[e]indazol-6-yl)phenyl)-3,9-diazaspiro[5.5]undecan-3-yl)ethyl)-1,2,3,4,4a,5,8,10-octahydro-9H-pyrazino[1′,2′:4,5][1,4]oxazino[2,3-f]isoindol-9-yl)piperidine-2,6-dione] | > 100 nM |  | > 10 nM | 
O=C1CCC(N2Cc3cc4c(cc3C2=O)OC[C@@H]2CN(CC(=O)N3CCC5(CC3)CCN(c3ccc([C@H]6c7ccc8[nH]ncc8c7CC[C@H]6c6ccccc6)cc3)CC5)CCN42)C(=O)N1 (stereo partly drawn) [Compound B390, 3-((S)-8-oxo-3-(2-oxo-2-(9-(4-((6S,7R)-7-phenyl-6,7,8,9-tetrahydro-3H-benzo[e]indazol-6-yl)phenyl)-3,9-diazaspiro[5.5]undecan-3-yl)ethyl)-1,2,3,4,4a,5,8,10-octahydro-9H-pyrazino[1′,2′:4,5][1,4]oxazino[2,3-f]isoindol-9-yl)piperidine-2,6-dione] | 10 to 100 nM |  | > 10 nM | 
O=C1CC[C@H](N2Cc3cc4c(cc3C2=O)OC[C@H](CN2CCC3(CC2)CCN(c2ccc([C@@H]5c6ccc(O)cc6CC[C@@H]5c5ccccc5)cc2)CC3)O4)C(=O)N1 [Compound B391, 3-((S)-2-((9-(4-((1R,2S)-6-hydroxy-2-phenyl-1,2,3,4-tetrahydronaphthalen-1-yl)phenyl)-3,9-diazaspiro[5.5]undecan-3-yl)methyl)-6-oxo-2,3,6,8-tetrahydro-7H-[1,4]dioxino[2,3-f]isoindol-7-yl)piperidine-2,6-dione] | > 100 nM |  | 1 to 10 nM | 

Further lines, with some results ahead:

DC50 (ER) | Structure (SMILES) | IC50 ([1]; T47D) | IC50 ([1]; T47D, T47D cell line) | IC50 ([1]; T47D cell line)
10 to 100 nM | O=C1CC[C@H](NC(=O)c2ccc3c(n2)OC[C@H]2CN(CC4COC5(CN(c6ccc([C@@H]7c8ccc(O)cc8CC[C@@H]7c7ccccc7)cc6)C5)OC4)CCN32)C(=O)N1 [Compound B347, (R)-N-((S)-2,6-dioxopiperidin-3-yl)-3-((2-(4-((1R,2S)-6-hydroxy-2-phenyl-1,2,3,4-tetrahydronaphthalen-1-yl)phenyl)-5,9-dioxa-2-azaspiro[3.5]nonan-7-yl)methyl)-1,2,3,4,4a,5-hexahydropyrazino[1,2-d]pyrido[2,3-b][1,4]oxazine-8-carboxamide] |  | < 1 nM | 
10 to 100 nM | O=C1CCC(N2Cc3cc4c(cc3C2=O)OC[C@@H]2CN(CC3CCC5(C3)CN(c3ccc([C@@H]6c7ccc(O)cc7CC[C@@H]6c6ccccc6)cc3)C5)CCN42)C(=O)N1 (stereo partly drawn) [Compound B358, 3-((4aS)-3-((2-(4-((1R,2S)-6-hydroxy-2-phenyl-1,2,3,4-tetrahydronaphthalen-1-yl)phenyl)-2-azaspiro[3.4]octan-6-yl)methyl)-8-oxo-1,2,3,4,4a,5,8,10-octahydro-9H-pyrazino[1′,2′:4,5][1,4]oxazino[2,3-f]isoindol-9-yl)piperidine-2,6-dione] |  | > 10 nM | 
> 100 nM | O=C1CC[C@H](NC(=O)c2ccc3c(n2)OC[C@H]2CN(CC4CCC5(C4)CN(c4ccc([C@@H]6c7ccc(O)cc7CC[C@@H]6c6ccccc6)cc4)C5)CCN32)C(=O)N1 (stereo partly drawn) [Compound B360, (4aR)-N-((S)-2,6-dioxopiperidin-3-yl)-3-((2-(4-((1R,2S)-6-hydroxy-2-phenyl-1,2,3,4-tetrahydronaphthalen-1-yl)phenyl)-2-azaspiro[3.4]octan-6-yl)methyl)-1,2,3,4,4a,5-hexahydropyrazino[1,2-d]pyrido[2,3-b][1,4]oxazine-8-carboxamide] |  | > 10 nM | 
10 to 100 nM | O=C1CCC(N2Cc3cc4c(cc3C2=O)OC[C@@H]2CN(CC3CCC5(CCN(c6ccc([C@@H]7c8ccc(O)cc8CC[C@@H]7c7ccccc7)cc6)CC5)C3)CCN42)C(=O)N1 (stereo partly drawn) [Compound B363, 3-((4aS)-3-((8-(4-((1R,2S)-6-hydroxy-2-phenyl-1,2,3,4-tetrahydronaphthalen-1-yl)phenyl)-8-azaspiro[4.5]decan-2-yl)methyl)-8-oxo-1,2,3,4,4a,5,8,10-octahydro-9H-pyrazino[1′,2′:4,5][1,4]oxazino[2,3-f]isoindol-9-yl)piperidine-2,6-dione] |  | > 10 nM | 
10 to 100 nM | O=C1CC[C@H](NC(=O)c2ccc3c(n2)OC[C@H]2CN(CC4CCC5(CCN(c6ccc([C@@H]7c8ccc(O)cc8CC[C@@H]7c7ccccc7)cc6)CC5)C4)CCN32)C(=O)N1 (stereo partly drawn) [Compound B365, (4aR)-N-((S)-2,6-dioxopiperidin-3-yl)-3-((8-(4-((1R,2S)-6-hydroxy-2-phenyl-1,2,3,4-tetrahydronaphthalen-1-yl)phenyl)-8-azaspiro[4.5]decan-2-yl)methyl)-1,2,3,4,4a,5-hexahydropyrazino[1,2-d]pyrido[2,3-b][1,4]oxazine-8-carboxamide] |  | > 10 nM | 
< 10 nM | O=C1CC[C@H](N2Cc3cc4c(cc3C2=O)OC[C@@H]2CN(C[C@H]3COC5(CCN(c6ccc([C@@H]7c8ccc(O)cc8CC[C@@H]7c7ccccc7)cc6)CC5)C3)CCN42)C(=O)N1 [Compound B398, (S)-3-((S)-3-(((S)-8-(4-((1R,2S)-6-hydroxy-2-phenyl-1,2,3,4-tetrahydronaphthalen-1-yl)phenyl)-1-oxa-8-azaspiro[4.5]decan-3-yl)methyl)-8-oxo-1,2,3,4,4a,5,8,10-octahydro-9H-pyrazino[1′,2′:4,5][1,4]oxazino[2,3-f]isoindol-9-yl)piperidine-2,6-dione] |  | < 1 nM | 
